# Assay results as given in paper PMC4546118 (SpringerPlus, 2015).
# Tests used:
# [1] = Pharmacokinetics of VCM after intraduodenal administration to control and PN rats; settings: for F (bioavailability): 20 mg/kg intraduodenal vs 5 mg/kg intravenous, dose-normalised AUC ratio; for ka (absorption rate constant) / CLD2/F / Cmax (maximum concentration) / Vc/F / Vp/F / t1/2α (distribution half-life) / t1/2β (elimination half-life) / CLtot/F: 20 mg/kg intraduodenal, two-compartment model with first-order absorption, plasma LC/MS/MS; for ka (absorption rate constant): pylorus ligated
# Procedure: (§1) Briefly, 3 days before the start of PN administration, cardiac catheterization was performed via the right jugular vein with a polyurethane catheter (0.6-mm ID, 0.9-mm OD, Primetech Co., Tokyo, Japan) in rats anesthetized with sodium pentobarbital, and given ampicillin for prevention of infection and local bupivacaine for pain relief. The cannulated rats were housed individually in cages with free access to food and water, and received saline at a rate of 0.1 mL/h for 3 days via the catheter with a syringe pump (ISIS Co., Ltd., Osaka, Japan), and daily ampicillin (2 mg/kg, 2-min infusion) for recovery from surgery. For PN administration, infusion of PN solution was started at a rate of 1.25 mL/h for 2 days under fasting and water-deprived conditions; PN solution consisting of glucose, amino acids, electrolytes, and vitamins (approximately 0.97 kcal/mL) was prepared by mixing PNTWIN No. 3 with VITAJECT (Fukushima et al. [2015]). Subsequently, PN administration was performed at a rate of 2.5 mL/h (viz., 60 mL/day, 58 kcal/day) for 7 days; likewise, the sham operated rats (control rats) underwent the same regimen with saline and allowed free access to food throughout the treatment.
# (§2) Blood samples were taken 5, 15, 30, 45, 60, 90, 120, 180, 240, and 360 min after administration, and were centrifuged at 12,000 rpm for 15 min to collect the plasma fraction. In the intraduodenal administration study, the abdominal cavity was opened in anesthetized rats and the stomach was exposed. […] After administration, the incision was closed with a tissue adhesive and the pylorus was ligated. Blood samples were taken 5, 15, 30, 60, 90, 120, 180, 240, 300, and 360 min after administration, and plasma samples were collected by centrifugation. The collected plasma samples in both studies were immediately frozen at −80 °C until analysis.
# (§3) After vortexing and centrifugation at 12,000 rpm for 15 min, the supernatant was diluted in 340 µL of distilled water and was passed through a filter, and 10 µL of the filtrate was injected into a Quattro Ultima LC/MS/MS system with a 2690 Separation Module (Waters Co, MA, UK). […] Mass spectrometry was conducted with electrospray ionization in positive mode (ESI+) under the following conditions: source temperature, 130 °C; cone voltage, 35 V; capillary voltage, 4.0 kV.
# (§4) All pharmacokinetic analyses were performed using WinNonlin® Version 6.3 (Pharsight, Mountain View, CA). The structural parameters, including the absorption rate constant (ka), distribution volume of the central compartment (Vc), distribution volume of the peripheral compartment (Vp), total body clearance (CLtot), and distribution clearance (CLD2), and the secondary parameters including the maximum concentration (Cmax), time to maximum concentration (Tmax), distribution half-life (t1/2α), elimination half-life (t1/2β), and the area under the plasma concentration–time curve (AUC) were calculated. The bioavailability (F) was calculated using the following equation: F=AUCintraduodenal/Doseintraduodenal/AUCintravenous/Doseintravenous, where Dose represents the administered dosage.
# (§5) All values are represented by the mean ± standard error (SE). Statistical differences of the means were assumed to be significant when p < 0.05 by the Mann–Whitney U test.
# [2] = Pharmacokinetics of VCM after intravenous administration to control and PN rats; settings: 5 mg/kg intravenous bolus, two-compartment model, plasma LC/MS/MS
# Procedure: as §1, §2, §3, §4, §5
# [3] = parameters: method as in Kusama et al. [1998]; settings: binding to plasma proteins; ref Kusama et al. [1998]; cited from earlier work
# [4] = PN rats (parenteral nutrition for 9 days), mean of n = 4, p<0.05 vs control
# [5] = PN rats (parenteral nutrition for 9 days), mean of n = 4
smiles,measurement,setting,value
"CN[C@H](CC(C)C)C(=O)N[C@H]1C(=O)N[C@@H](CC(N)=O)C(=O)N[C@H]2C(=O)N[C@H]3C(=O)N[C@H](C(=O)N[C@H](C(=O)O)c4cc(O)cc(O)c4-c4cc3ccc4O)[C@H](O)c3ccc(c(Cl)c3)Oc3cc2cc(c3O[C@@H]2O[C@H](CO)[C@@H](O)[C@H](O)[C@H]2O[C@H]2C[C@](C)(N)[C@H](O)[C@H](C)O2)Oc2ccc(cc2Cl)[C@H]1O [VCM, vancomycin]",F (bioavailability),[1]; [4],1.295%
same,ka (absorption rate constant),[1]; [5],0.256 min⁻¹
same,CLD2/F,[1]; [5],81.6 L/h/kg
same,Cmax (maximum concentration),[1]; [5],0.267 µg/mL
same,Vc/F,[1]; [5],89 L/kg
same,Vp/F,[1]; [5],29 L/kg
same,t1/2α (distribution half-life),[1]; [5],26.2 min
same,t1/2β (elimination half-life),[1]; [5],150 min
same,CLtot/F,[1]; [4],35.4 L/h/kg
same,ka (absorption rate constant),"[1]; control rats (sham, saline), mean of n = 4",0.214 min⁻¹
same,F (bioavailability),"[1]; control rats, mean of n = 4",0.504%
same,CLD2/F,"[1]; control rats, mean of n = 4",123 L/h/kg
same,CLtot/F,"[1]; control rats, mean of n = 4",80.4 L/h/kg
same,Cmax (maximum concentration),"[1]; control rats, mean of n = 4",0.111 µg/mL
same,Vc/F,"[1]; control rats, mean of n = 4",158 L/kg
same,Vp/F,"[1]; control rats, mean of n = 4",107 L/kg
same,t1/2α (distribution half-life),"[1]; control rats, mean of n = 4",31.4 min
same,t1/2β (elimination half-life),"[1]; control rats, mean of n = 4",174 min
same,AUC (area under the plasma concentration vs time curve),[2]; [5],807 µg·min/mL
same,CLD2 (distribution clearance),[2]; [5],0.254 L/h/kg
same,CLtot (total body clearance),[2]; [5],0.373 L/h/kg
same,Vc (distribution volume of the central compartment),[2]; [5],0.234 L/kg
same,Vp (distribution volume of the peripheral compartment),[2]; [5],0.223 L/kg
same,t1/2α (distribution half-life),[2]; [5],13.72 min
same,Vc (distribution volume of the central compartment),"[2]; control rats (sham, saline), male Wistar, mean of n = 4 (SE in own column)",0.214 L/kg
same,AUC (area under the plasma concentration vs time curve),"[2]; control rats, mean of n = 4",788 µg·min/mL
same,CLD2 (distribution clearance),"[2]; control rats, mean of n = 4",0.376 L/h/kg
same,CLtot (total body clearance),"[2]; control rats, mean of n = 4",0.386 L/h/kg
same,Vp (distribution volume of the peripheral compartment),"[2]; control rats, mean of n = 4",0.283 L/kg
same,t1/2α (distribution half-life),"[2]; control rats, mean of n = 4",9.72 min
same,protein binding rate,[3],approximately 47%
